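These data come from cells grown in 96-well plates and exposed to compound for 48 hours at five concentrations. At the GI50, growth is halved. At the TGI there is no net growth.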
Columns and labels:
Experiment in all cases: DTP human tumour cell line panel, 48 h
A498 renal = system: A498 renal
SW-620 colon = system: SW-620 colon
RPMI-8226 leukemia = system: RPMI-8226 leukemia
SF-268 CNS = system: SF-268 CNS
NCI-H460 lung = system: NCI-H460 lung
CAKI-1 renal = system: CAKI-1 renal
SK-MEL-2 melanoma = system: SK-MEL-2 melanoma
U251 CNS = system: U251 CNS
EKVX NSCLC = system: EKVX NSCLC
HT29 colon = system: HT29 colon

| Structure (SMILES) | GI50 (A498 renal) | TGI (A498 renal) | GI50 (SW-620 colon) | TGI (SW-620 colon) | GI50 (RPMI-8226 leukemia) | TGI (RPMI-8226 leukemia) | GI50 (SF-268 CNS) | TGI (SF-268 CNS) | GI50 (NCI-H460 lung) | TGI (NCI-H460 lung) | GI50 (CAKI-1 renal) | TGI (CAKI-1 renal) | GI50 (SK-MEL-2 melanoma) | TGI (SK-MEL-2 melanoma) | TGI (U251 CNS) | TGI (EKVX NSCLC) | TGI (HT29 colon) |
| --- | --- | --- | --- | --- | --- | --- | --- | --- | --- | --- | --- | --- | --- | --- | --- | --- | --- |
| c1ccc(-c2nc(N3CCNCC3)c3oc(-c4ccccc4)nc3n2)cc1 | 1.62 µM | 3.07 µM | 1.35 µM | 2.94 µM | 2.03 µM | 5.16 µM | 1.73 µM | 3.46 µM | 1.75 µM | 3.38 µM | 1.66 µM | 3.18 µM | 2.31 µM | 5.42 µM |  |  |  |
| Nc1nc(Nc2ccccc2)c2[nH]cnc2n1 |  | 81.7 µM |  | > 100 µM |  | > 100 µM |  |  |  |  |  | > 100 µM |  | > 100 µM | > 100 µM | > 100 µM | > 100 µM |
| COc1cc(C(C)O)c[n+](Cc2ccccc2)c1 (stereo not given) |  | > 100 µM |  | > 100 µM |  | > 100 µM |  | > 100 µM |  | > 100 µM |  | > 100 µM |  | > 100 µM | > 100 µM | > 100 µM | > 100 µM |
| COC(=O)c1c(C)n([O-])c2cc(Cl)c(Cl)cc2[n+]1=O |  | 40.2 µM |  | > 100 µM |  | 19.3 µM |  | > 100 µM |  | 29.2 µM |  | 61 µM |  | 82.1 µM | > 100 µM | 67.7 µM | 51.6 µM |
| OCCN(CCO)c1ncnc2nc[nH]c12 |  | > 100 µM |  | > 100 µM |  | > 100 µM |  | > 100 µM |  | > 100 µM |  | > 100 µM |  |  | > 100 µM | > 100 µM | > 100 µM |
| Cc1c(-c2ccccc2)[nH]c2cc(Cl)ccc2c1=O |  | > 100 µM |  |  |  | > 100 µM |  | > 100 µM |  | > 100 µM |  | > 100 µM |  | > 100 µM | 78.1 µM | > 100 µM | > 100 µM |
| CC(C)C(C(=O)O)N1C(=O)c2ccccc2C1=O (stereo not given) |  | > 100 µM |  | > 100 µM |  | > 100 µM |  | > 100 µM |  | > 100 µM |  | > 100 µM |  | 0.612 µM | > 100 µM | > 100 µM | > 100 µM |
| c1cnc2c(c1)ccc1cccnc12 |  | > 100 µM |  | > 100 µM |  | 7.89 µM |  | > 100 µM |  | 7.98 µM |  | 27.3 µM |  | > 100 µM | > 100 µM | > 78.6 µM | > 100 µM |
| CCOC(=O)c1c(C)n(-c2ccc(Cl)cc2)c2c1cc(O)c1[nH]c3c(c12)CCCC3 |  | > 100 µM |  | > 100 µM |  | > 100 µM |  | > 100 µM |  | > 100 µM |  | > 100 µM |  | 92.9 µM | > 100 µM | > 100 µM | > 100 µM |
| O=C(/C=C/c1ccc(Oc2cc(C(=O)/C=C/c3ccc(O)cc3)c(O)cc2O)cc1)c1ccc(O)cc1O |  | 14.1 µM |  | 19.8 µM |  | 8.09 µM |  | 28.3 µM |  | 29.8 µM |  | 18.1 µM |  | 28.2 µM | 20.7 µM | 27.9 µM | 3.57 µM |
| CN1C(c2ccccc2)CC(=O)C(N)C1c1ccccc1 (stereo not given) |  | > 100 µM |  | 57.1 µM |  | 44.1 µM |  | > 100 µM |  | 55.6 µM |  | > 75.2 µM |  | 41.1 µM | 49.2 µM | > 80.4 µM | 55.8 µM |

From PubChem BioAssay (NCI)
